In one data set the test system is HIV-1 (strain LAV-1). Put plainly: HIV-1 replication in infected human PBM cells (RT activity of disrupted virions). The conditions noted are these: for EC50: read-out: EC50 (median effective concentration). In kind it is cell-based. From the text:
Cells, virus strains, and cell culture assays. PBM cells from healthy HIV-1 and hepatitis B virus seronegative donors were isolated and propagated as described previously (35). HIV-1 (strain LAV-1) was obtained from the Centers for Disease Control, Atlanta, and propagated in PHA-stimulated human PBM cells as described previously (35). The details of the methods used for infection and assaying the anti-HIV-1 effect in infected human PBM cells have been reported (35).
RT activity assay with disrupted virions. Six ml supernatant from each culture was clarified from cells at 300× g for 10 minutes. Virus particles were then pelleted from 5 ml samples at 40,000 rpm for 30 minutes using a Beckman 70.1 Ti rotor and suspended in 200 μl of virus disrupting buffer [50 mM Tris-HCl pH 7.8, 800 mM NaCl, 20% glycerol, 0.5 mM phenylmethyl sulfonyl fluoride (PMSF), and 0.5% Triton X-100].
The RT assays were performed at 37° C. in 96-well microtiter plates using methods described previously (35, 38). The results were expressed as dpm/ml of the originally clarified supernatant.
(§1) Calculation of synergy. […] Briefly, the method involves plotting of dose-effect curves for each compound alone and in combinations. It is essential to use a fixed ratio of the agents in multiply diluted combinations in order to use the median-effect equation: fa /fu =(C/Cm)^m. In this equation, C is the concentration, fa and fu are the fractions of the system which are affected and unaffected, respectively, by concentration C. Cm is the concentration required for a 50% effect (analogous to IC50 to EC50 values), and m is a Hill-type coefficient signifying the sigmoidicity of the dose-effect curve. The slopes (m) of the dose-effect plots, obtained for the studied compounds, provided information as to whether the compounds are mutually exclusive (i.e. similar modes of action) or mutually non-exclusive (i.e. different modes of action). When the plots of both compounds and their combination were all parallel, the effects of the two compounds were mutually exclusive. The interaction between two compounds was determined by calculating the combination index (C.I.) with assumptions, where appropriate, of either mutually exclusive or non-exclusive interactions. When uncertainty existed as to whether the drugs acted in similar or independent manners, the determination of C.I.-values were calculated under each assumption and compared. Values of C.I.<1 indicated synergy, C.I.=1 indicated additive effects, and C.I.>1 indicated antagonism. A computer program obtained from Elsevier-Biosoft, Cambridge, U.K. was used for automatic analysis of all dose-effect data. Additional details on using this method have been reported previously (33).

In another data set the test system is HCMV strain Ad169. Put plainly: HCMV plaque reduction assay in HEL cells. The conditions noted are these: for EC50: Human betaherpesvirus 5, AD169, HEL, CMV infected cells. In kind it is cell-based, human cytomegalovirus. As for the experimental part: HCMV strain Ad169 was a gift from Dr. Fred Rapp, Hersey, Pa. Human embryonic lung (HEL) cells, obtained from the American Type Culture Collection, Rockville, Md., were cultured in Dulbecco modified Eagle medium as decribed previously (39). Viable cells were conducted microscopically using a hemacytometer and the trypan blue exclusion method. Plaque reduction assays were performed in confluent monolayers of HEL cells in 6-well plates (Costar, Cambridge, Mass.) with 100 to 200 pfu of HCMV Ad169. After an adsorption period of 1 hour, unadsorbed virus was removed and the monolayers were overlaid with Dulbecco modified Eagle medium containing 0.75% SeaPlaque agarose (FMC BioProducts, Rockland, Me.), 2% heat inactivated fetal calf serum, and the appropriate concentration of drug. The plates were incubated at 37° C. in a humidified atmosphere containing 5% CO2 for 10 to 12 days. The monolayers were then fixed with 10% buffered Formalin (Fisher Scientific Co, Fair Lawn, N.J.), stained with crystal violet, and the number of plaques were counted.
as §1

The target of data set [1] is T1, HIV-1 reverse transcriptase (Human immunodeficiency virus type 1 group M subtype B, UniProt P04585).
T1 construct: HIV-1 reverse transcriptase was isolated from detergent disrupted virions; endogenous in cells; host or cells: virions from cell-free supernatant of HIV-1 infected PHA-stimulated human PBM cells, ion-exchange chromatography
In words: RT activity assay with partially purified enzyme. In kind it is biochemical. As for the experimental part:
RT activity assay with partially purified enzyme. HIV-1 reverse transcriptase was isolated from detergent disrupted virions obtained from the cell-free supernantant of infected PHA-stimulated PBM cells. The enzyme was purified by passing the extract through ion-exchange chromatography columns as described previously (12). The enzyme was characterized as HIV-1 RT based on its specific requirements according to previous description (1, 18). The standard reaction mixture (100 μl) contained 100 mM Tris-HCl (pH 8.0), 50 mM KCl, 2 mM MgCl2. 5 mM dithiothreitol 400 μg/ml bovine serum albumin, 0.05 U/ml (3.1 μg/ml) of (rA)n (dT)12-18, 1 μM [^3 H] dTTP (spec. act. 18,000 cpm/pmol) and 10 μl of HIV-1 Rt. The reactions were incubated and processed as previously described (7).
as §1

The next data set has as its target T2, HCMV DNA polymerase (Human cytomegalovirus, UniProt P08546).
T2 construct: gift from Dr. B. Wahren, National Bacteriological Laboratory, Stockholm
Put plainly: CMV DNA polymerase assay. In kind it is biochemical.
Text: CMV DNA Polymerase Assay. The partially purified HCMV-specific DNA polymerase was a generous gift from Dr. B. Wahren, National Bacteriological Laboratory, Stockholm. The procedure for the purification of HCMV DNA polymerase by sequential chromatographic steps on DEAE-cellulose (Whatman DE-52) and phosphocellulose (Whatman P-11) and the measurement of enzyme activity have been described previously (5).
as §1

Data set [2] has as its system uninfected PHA-stimulated human PBM cells. In words: Cell proliferation / toxicity in uninfected PBM cells (trypan blue exclusion). The format is cell-based. As for the experimental part: Cell proliferation. The drugs alone and in combination were evaluated for their potential toxic effects on uninfected PHA-stimulated human PBM cells. Flasks were seeded so that the final cell concentration was 3×10^5 cells ml. The cells were cultured with and without drug for 6 days at which time aliquots were counted for cell viability by using the trypan blue exclusion method.

For the next data set, the system named is HIV-1. The note with it: patients, after a 14-day treatment; cited from earlier work.
Where [3] appears, read: Human immunodeficiency virus 1, PBMC.

“Also recorded” adds a separate entry of the source. Where two headings read alike, the source gives them in different places.

T2 sequence (P08546 whole entry): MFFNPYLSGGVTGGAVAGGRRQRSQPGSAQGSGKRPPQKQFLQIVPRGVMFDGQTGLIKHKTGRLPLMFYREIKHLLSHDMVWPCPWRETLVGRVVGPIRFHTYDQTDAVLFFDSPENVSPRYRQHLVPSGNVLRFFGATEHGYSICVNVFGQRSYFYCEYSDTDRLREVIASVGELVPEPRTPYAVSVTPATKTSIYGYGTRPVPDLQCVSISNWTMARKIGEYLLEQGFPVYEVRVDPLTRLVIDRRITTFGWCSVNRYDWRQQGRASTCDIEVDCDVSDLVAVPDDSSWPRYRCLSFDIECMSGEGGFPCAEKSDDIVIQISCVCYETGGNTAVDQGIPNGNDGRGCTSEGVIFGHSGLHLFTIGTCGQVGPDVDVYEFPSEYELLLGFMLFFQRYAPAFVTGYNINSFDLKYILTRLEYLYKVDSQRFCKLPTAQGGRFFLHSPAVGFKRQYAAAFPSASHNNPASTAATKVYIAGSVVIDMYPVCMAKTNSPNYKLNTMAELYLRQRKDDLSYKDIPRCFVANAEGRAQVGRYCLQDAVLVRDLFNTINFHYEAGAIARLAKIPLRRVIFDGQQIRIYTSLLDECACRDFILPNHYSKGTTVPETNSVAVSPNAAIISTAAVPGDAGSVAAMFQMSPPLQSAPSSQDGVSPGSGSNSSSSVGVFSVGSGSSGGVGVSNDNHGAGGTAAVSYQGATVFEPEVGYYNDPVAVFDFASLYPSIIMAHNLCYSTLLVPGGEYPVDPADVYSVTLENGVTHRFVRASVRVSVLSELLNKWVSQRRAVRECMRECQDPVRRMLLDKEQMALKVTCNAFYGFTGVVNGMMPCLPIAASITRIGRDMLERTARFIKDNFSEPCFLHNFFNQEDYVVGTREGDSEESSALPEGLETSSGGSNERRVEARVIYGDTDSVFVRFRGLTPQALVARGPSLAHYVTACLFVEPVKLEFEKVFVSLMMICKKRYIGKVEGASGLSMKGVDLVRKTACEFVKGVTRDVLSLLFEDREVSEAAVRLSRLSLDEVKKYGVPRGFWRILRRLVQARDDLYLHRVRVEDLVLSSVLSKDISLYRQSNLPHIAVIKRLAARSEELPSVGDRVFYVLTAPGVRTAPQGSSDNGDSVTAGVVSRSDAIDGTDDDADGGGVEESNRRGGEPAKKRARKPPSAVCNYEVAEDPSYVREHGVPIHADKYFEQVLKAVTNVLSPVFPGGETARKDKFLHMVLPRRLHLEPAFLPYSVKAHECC

`Cc1cn([C@H]2C[C@H](N=[N+]=[N-])[C@@H](CO)O2)c(=O)[nH]c1=O` [AZT, 3'-azido-3'-deoxythymidine]: in the data set with HIV-1 (strain LAV-1) (AZT 0.002 μM), the RT activity was found to be 750 kdpm/ml. For the same compound, the RT activity in the data set on HIV-1 (strain LAV-1) (AZT 0.004 μM) is 584 kdpm/ml. The RT activity in the data set with HIV-1 (strain LAV-1) (AZT 0.008 μM) came out at 343 kdpm/ml. The RT activity with HIV-1 (strain LAV-1) (AZT 0.016 μM) stood at 35.9 kdpm/ml. In the data set with HIV-1 (strain LAV-1) (setting [3]), the inhibition at 0.002 µM stood at 3%, the inhibition at 0.004 µM came to 24.5%, the inhibition at 0.008 µM was found to be 55.7% and the inhibition at 0.016 µM turned out to be 95.5%. Besides, the EC50 in the data set on HIV-1 (strain LAV-1) (setting [3]) worked out at 6 nM. In addition, the EC50 in the data set on HCMV strain Ad169 (extrapolated in order to calculate C.I.-values, read-out: EC50 (extrapolated)) is 383000 nM. Also, the “inhibitory effect on multiplication of HCMV Ad169 in HEL fibroblasts” value in the data set with HCMV strain Ad169 (concentrations up to 200 μM) is on record as “virtually without inhibitory effect”. Further, the “effect against HCMV replication in cell culture” value in the data set on HCMV strain Ad169 (human embryonic lung fibroblasts) is on record as “no inhibitory effect; also recorded: neither inhibited the replication”.

With `Cc1cn([C@H]2C[C@H](N=[N+]=[N-])[C@@H](COP(=O)(O)OP(=O)(O)OP(=O)(O)O)O2)c(=O)[nH]c1=O` [AZT-TP, 3'-azido-3'-deoxythymidine-5'-triphosphate], the “m ± SE (slope of median effect plot)” value is 0.87±0.03 in data set [1] (HIV-1 reverse transcriptase) and 0.88 ± 0.09 on HCMV DNA polymerase (CMV DNA polymerase). In addition, in data set [1] (HIV-1 reverse transcriptase, read-out: EC50 (median effective concentration)), the EC50 worked out at 3 nM.

As for `O=C(O)P(=O)(O)O` [PFA, phosphonoformic acid], the inhibition at 8 µM in the data set on HIV-1 (strain LAV-1) (setting [3]) was 9.1%. In addition, in the data set with HIV-1 (strain LAV-1) (setting [3]), the inhibition at 16 µM worked out at 41.1%. In addition, the inhibition at 32 µM in the data set on HIV-1 (strain LAV-1) (setting [3]) came to 75.5%. Also, in the data set with HIV-1 (strain LAV-1) (setting [3]), the inhibition at 64 µM came to 88.1%. Besides, the inhibition at 128 µM in the data set with HIV-1 (strain LAV-1) (setting [3]) worked out at 95.5%. The EC50 in the data set with HIV-1 (strain LAV-1) (setting [3]) is 22000 nM; in data set [1] it was 140 nM; with HCMV strain Ad169 (plaque formation, read-out: EC50 (median effective concentration)), 34000 nM; at HCMV DNA polymerase (CMV DNA polymerase, read-out: EC50 (median effective concentration)), 780 nM. Besides, the RT activity with HIV-1 (strain LAV-1) (PFA 8 μM) was 703 kdpm/ml; with HIV-1 (strain LAV-1) (PFA 16 μM) it was 455 kdpm/ml; in the data set with HIV-1 (strain LAV-1) (PFA 32 μM), 190 kdpm/ml; in the data set on HIV-1 (strain LAV-1) (PFA 64 μM), 93.1 kdpm/ml; in the data set on HIV-1 (strain LAV-1) (PFA 128 μM), 35.9 kdpm/ml. Further, in data set [2], the “toxicity to PBM cells” value is “not toxic”. Further, the “m ± SE (slope of median effect plot)” value is recorded as 0.91±0.03 in data set [1] (HIV-1 reverse transcriptase) and 0.79 ± 0.02 at HCMV DNA polymerase (CMV DNA polymerase). On HCMV DNA polymerase, the “EC50 times lower than that of AZT-TP” value is recorded as “more than 30 times”. The “HIV-1 p24 antigen concentrations” value in the data set on HIV-1 was “significant reduction”.

The values above are taken from patent US5686428A, “Pharmaceutical composition” (priority 1994, dated 1997).
